Experimental data: publication PMC12064818, “A general assay platform to study protein pharmacology using ligand-dependent structural dynamics” (Nature Communications, 2025)

The compounds below were run against T1, FLuc-C-HiBiT (Photinus pyralis, UniProt P08659) (assay: biochemical). Conditions: enzyme activity, 10 uM ATP; read-out: IC50 or SDR50 (mM) / FLuc E.
T1 construct: firefly luciferase with C-terminal HiBiT tag, E. coli expressed
T1 sequence (P08659 whole entry, looked up): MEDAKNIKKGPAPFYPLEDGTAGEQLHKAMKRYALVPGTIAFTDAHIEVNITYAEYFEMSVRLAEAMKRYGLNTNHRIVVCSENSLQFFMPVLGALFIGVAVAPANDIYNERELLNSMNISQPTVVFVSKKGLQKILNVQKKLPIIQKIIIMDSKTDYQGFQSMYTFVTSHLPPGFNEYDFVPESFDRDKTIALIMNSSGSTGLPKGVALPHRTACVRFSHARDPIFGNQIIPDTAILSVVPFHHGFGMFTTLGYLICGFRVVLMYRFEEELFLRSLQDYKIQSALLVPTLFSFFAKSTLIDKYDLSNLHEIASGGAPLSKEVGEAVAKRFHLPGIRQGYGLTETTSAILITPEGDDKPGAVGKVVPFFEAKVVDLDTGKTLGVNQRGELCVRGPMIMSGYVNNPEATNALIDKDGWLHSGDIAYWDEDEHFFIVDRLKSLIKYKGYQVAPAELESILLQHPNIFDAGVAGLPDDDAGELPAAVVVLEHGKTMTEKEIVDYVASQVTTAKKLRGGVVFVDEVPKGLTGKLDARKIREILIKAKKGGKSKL

Row | IC50 [µM] | SMILES
1 | 2.48 | Cc1cccc(C(=O)Nc2nc3c(s2)CCCC3)c1 [NCGC00118410-01]
2 | 14 | Cn1ccnc1CN1C(=O)CO[C@H](c2ccc(NC(=O)Nc3ccccc3)cc2)[C@H]1CO [NCGC00396650-01]
3 | > 30 | CC(C)Oc1ccc(C(=O)Nc2ccc(-c3nc4ccccc4s3)cc2)cc1 [NCGC00119129-01]
4 | 0.00351 | O=C(O)c1cccc(-c2noc(-c3ccccc3Cl)n2)c1 [NCGC00168762-01]
5 | 4.42 | Cc1ccc2nc(-c3ccc4nc(-c5ccc(NC(=O)c6cccc(Cl)c6)cc5)sc4c3)sc2c1[S+](=O)([O-])O [NCGC00386846-01]
6 | 3.13 | CC(=O)c1cccc(NC(=O)c2nc3ccccc3n(C)c2=O)c1 [NCGC00107713-01]
7 | > 30 | COc1ccc(-c2noc([C@@H]3Cc4[nH]cnc4CN3C(=O)Nc3ccc(Cl)cc3)n2)cc1 [NCGC00401634-01]
8 | 18 | O=C(Nc1cccnc1)c1nc2c(o1)CCN(Cc1ccc(O)cc1)CC2 [NCGC00413415-01]
9 | 14 | CC(C)c1nc(C2Cc3ccccc3N2C(=O)NC2CCCC2)no1 (stereo not shown) [NCGC00471499-01]
10 | 9.89 | COC(=O)c1ccccc1NC(=O)CCc1c(C)nc2cc(-c3ccc(Cl)cc3)nn2c1C [NCGC00110028-01]
11 | 18 | CN1CCOc2nc(-c3cccc(OC(F)(F)F)c3)ncc2C1=O [NCGC00413529-01]
12 | 11.1 | COC(=O)c1c(-c2cccs2)csc1NC(=O)c1ccc(Br)cc1 [NCGC00118335-01]
13 | 11.1 | COc1cccc(CN2CCc3nc(Nc4ccc5c(c4)OCCO5)ncc3C2)c1 [NCGC00131180-01]
14 | 0.00624 | COc1ccccc1-c1nc(-c2cccc(C(=O)O)c2)no1 [NCGC00168765-01]
15 | > 30 | Cc1ccc(CNC(=O)c2ccc3c(c2)CN(Cc2cnn(C)c2C)CCO3)cc1 [NCGC00426362-01]
16 | 14 | Cc1ccc2nc(-c3ccc(NC(=O)COc4ccccc4C(C)(C)C)cc3)sc2c1 [NCGC00098265-01]
17 | 1.11 | COc1ccc(C)cc1NC(=O)c1ccc2c(Cl)c3c(nc2c1)CCC3 [NCGC00111420-01]
18 | > 30 | Cc1c(CN2CCOc3c(O)cc(-c4nc5ccccc5s4)cc3C2)cnn1C [NCGC00240749-01]
19 | > 30 | CCCCN(C)[S+](=O)([O-])c1ccc(C(=O)Nc2ccc(-c3nc4ccc(C)cc4s3)cc2)cc1 [NCGC00134689-02]
20 | > 30 | Cc1nn(-c2ccc(C(C)C)cc2)c(C)c1[C@@H]1C=C[C@@H](NC(=O)CC2(CC(=O)O)CCCC2)C1 [NCGC00421413-01]
21 | 9.89 | Cc1ccc2nc(-c3ccc(NC(=O)Cc4ccccc4)cc3)sc2c1 [NCGC00098885-01]

Row | IC50 [µM] | SMILES
22 | 9.89 | Fc1ccc(Nc2nc(-c3ccccc3F)no2)cc1 [NCGC00422310-01]
23 | 0.0197 | CC(C)(C)C(=O)Nc1ccc(-c2nc3ccccc3s2)cc1 [NCGC00118992-01]
24 | 15.7 | CCOC(=O)c1ccc(NC(=O)c2csc3c2CCCC3)cc1 [NCGC00112858-01]
25 | 2.48 | CCOC(=O)N1CCc2c(sc(NCc3cccc(F)c3)c2C(=O)Nc2ccc(OC)cc2OC)C1 [NCGC00140797-01]
26 | 1.24 | Clc1ccc(-n2ncc3c(NC4CCCC4)ncnc32)cc1 [NCGC00139250-01]
27 | 0.7 | CC(=O)c1nn(-c2ccc(OC(F)(F)F)cc2)nc1Nc1ccccc1 [NCGC00116600-01]
28 | 12.4 | FC(F)(F)c1cc(-c2nc3ccccc3s2)cc(C(F)(F)F)c1 [NCGC00167627-01]
29 | 3.21 | CNC(=O)c1cccc(-c2cnc(NC(=O)Cc3ccccc3)c3c2CCO3)c1 [NCGC00412711-01]
30 | > 30 | O=C(Nc1ccc(O)c(-c2nc3ccccc3s2)c1)c1cc2ccccc2o1 [NCGC00595541-01]
31 | 9.89 | Cc1nonc1COc1ccc(C(=O)Nc2cccc(-c3nc4ccccc4s3)c2)cc1 [NCGC00688799-01]
32 | 1.76 | Cc1ccc(-n2ncc3c(NC4CCCCC4)ncnc32)cc1C [NCGC00139081-01]
33 | > 30 | Cc1noc(C)c1CC(=O)N1CCOc2c(cc(-c3nc4ccccc4s3)cc2OC2CCOC2)C1 (stereo not shown) [NCGC00239833-01]
34 | 9.89 | COc1cccc(C(=O)NCCn2ccn3nc(-c4ccc(C)cc4C)cc3c2=O)c1OC [NCGC00456963-01]
35 | 6.4 | COc1ccc(-n2nc(C)c([C@@H]3C=C[C@@H](NC(=O)NCc4ccccc4)C3)c2C)cc1 [NCGC00421411-01]
36 | 5.56 | CC(=O)NCCNC(=O)c1ccc2c(=O)n(CCc3ccccc3)c(=O)[nH]c2c1 [NCGC00104963-01]
37 | > 30 | Cc1ccc(-c2nnc(C3CN(C(=O)c4sc(C)nc4C)CC34CCOCC4)o2)cc1 (stereo not shown) [NCGC00471668-01]
38 | 18 | Cc1ccccc1-c1cccc(COc2cnc3c(ccn3CC(=O)O)c2)c1 [NCGC00418175-01]
39 | 14 | CC1CCN(C(=O)c2cc3c(s2)CCC(C(=O)O)C3)CC1 (stereo not shown) [NCGC00432771-01]
40 | 2.48 | Cc1cc(-c2nc3cc(F)ccc3s2)ccc1NC(=O)[C@@H](N)CCCCN [NCGC00379246-02]
41 | 12.4 | CN1c2cc(C(=O)Nc3cc(F)ccc3F)ccc2C(=O)N2CCCCCC21 (stereo not shown) [NCGC00452248-01]
42 | 16.1 | COCCNc1ncc(-c2cccc(NC(C)=O)c2)c2c1OCC2 [NCGC00412815-01]

Row | IC50 [µM] | SMILES
43 | 20.2 | Cc1nn(-c2ccc(C(C)(C)C)cc2)c(C)c1[C@@H]1C=C[C@@H](NC(=O)CCCC(=O)O)C1 [NCGC00400254-01]
44 | 1.76 | COc1ccc(-n2ncc3c(NC4CCCC4)ncnc32)cc1 [NCGC00139254-01]
45 | > 30 | CN(C)c1ccc(-c2noc([C@@H]3CCCN3Cc3cnc4ccccc4c3)n2)cn1 [NCGC00394599-01]
46 | > 30 | COc1ccc(CC(=O)Nc2ccc(-c3nc4ccccc4s3)c(C)c2)cc1 [NCGC00137836-01]
47 | 2.48 | O=C(Nc1cccnc1)c1cc(-c2ccc(Cl)cc2)on1 [NCGC00105781-01]
48 | 0.197 | O=C(O)c1ccc(-c2noc(-c3ccccc3F)n2)cc1 [NCGC00168096-02]
49 | 0.248 | Cc1ccc2c(c1)sc1nc(-c3cc4ccccc4oc3=O)cn12 [NCGC00098323-01]
50 | > 30 | Oc1cc(-c2nc3ccccc3s2)cc2c1OCCN(Cc1ncccn1)C2 [NCGC00432964-01]
51 | > 30 | O=c1[nH]nc2n1CCCCC2 [NCGC00019120-02]
52 | 11.1 | O=C(NC1CCCC1)N1c2ccccc2CC1c1noc(C2CCOCC2)n1 (stereo not shown) [NCGC00471510-01]
53 | > 30 | COc1cccc(C(=O)Nc2ccc(-c3nc4ccc(C)cc4s3)cc2)c1OC [NCGC00134693-01]
54 | 6.24 | COc1cccc(-c2noc(Nc3ccc4c(c3)OCO4)n2)c1 [NCGC00422370-01]
55 | > 30 | O=C(N[C@H]1CCN2C(=O)c3cc(/C=C/c4ccc(O)cc4)ccc3NC(=O)[C@H]12)c1cnccn1 [NCGC00421527-01]
56 | > 30 | COc1ccc2c(C)c(-c3nc(C4CCOC4)no3)oc2c1 (stereo not shown) [NCGC00443479-01]
57 | 9.89 | Cc1c(-c2ccccc2F)[nH]c2ccc(CNC(=O)CC3CCC(=O)N3)cc12 (stereo not shown) [NCGC00425710-01]
58 | > 30 | CN1CCN(C[C@@H]2CN(C(=O)CCCc3ccccc3)C[C@@H]2CO)CC1 [NCGC00435815-01]
59 | 9.89 | Cc1ccc(C2Cn3nnc(C(=O)N4CCC(C(=O)NCCN5CCCC5)CC4)c3CO2)cc1 (stereo not shown) [NCGC00449567-01]
60 | 18 | O=C(Nc1ccc(F)cc1)c1cc2cccnn2n1 [NCGC00477081-01]
61 | 7.18 | CC(C)(C)CN1CCNc2cc(Nc3ccccc3)ncc2C1 [NCGC00411260-01]
